Compound	melting point	boiling point	ready biodegradability	log10 Henry constant (atm·m³/mol)	log10 vapour pressure (mmHg)	log10 Koc (L/kg)	log10 Koa
C[C@@](Cc1ccc(O)c(O)c1)(NN)C(=O)O	208 °C	–	–	–	–	–	–
CC(Br)C(=O)O (stereo not given)	–	203 °C	–	–	–	–	–
CCN(CC)CCSC(=O)N(c1ccccc1)c1ccccc1	48.5 °C	–	–	–	–	–	–
C=C(C)c1ccc(C(C)C)cc1	-30.6 °C	221 °C	–	–	–	–	–
O=c1ccn([C@H]2CC[C@@H](CO)O2)c(=O)[nH]1	128 °C	–	–	–	–	–	–
CNC(=O)Oc1c(C(C)(C)C)cc(C)cc1C(C)(C)C	–	–	not readily biodegradable	–	–	–	–
CCCCC(=O)OCc1ccco1	–	228 °C	–	–	–	–	–
CCCCCCCCCCCCC(CCCCCCCCCCC)CCCCCCCCCCCC	9.7 °C	–	–	–	–	–	–
CC(CC(C)(C)O)OC(O)C(Cl)(Cl)Cl (stereo not given)	103 °C	–	–	–	–	–	–
FC(F)Br	-145 °C	-15.5 °C	–	–	–	–	–
COc1ccc2c(c1)c(CC(=O)O)c(C)n2C(=O)/C=C/c1ccccc1	170 °C	–	–	–	–	–	–
NCCN	11.1 °C	117 °C	readily biodegradable	-8.76	1.08	–	–
Cc1cccc(CCl)c1	–	196 °C	–	–	–	–	–
CCOC(=O)c1ccc(OC)cc1	7.5 °C	270 °C	–	–	–	–	–
N#CC(CCc1ccc(Cl)cc1)(Cn1cncn1)c1ccccc1 (stereo not given)	125 °C	–	–	–	-7.43	–	–
CC(C)(C)CCl	-20 °C	84.3 °C	–	–	–	–	–
CC1=C(C)C(=O)OC1=O	96 °C	223 °C	–	–	–	–	–
C=CCC1(CC(=C)Br)C(=O)NC(=O)NC1=O	168 °C	–	–	–	–	–	–
N#CC(Br)c1ccccc1 (stereo not given)	29 °C	–	–	–	–	–	–
CCOCCOC(C)(C)C	–	148 °C	–	–	–	–	–
Cc1ccc2occc2c1	–	198 °C	–	–	–	–	–
Cc1cc(=O)oc2cc(O)c(O)cc12	275 °C	–	–	–	–	–	–

Compound	melting point	boiling point	ready biodegradability	log10 Henry constant (atm·m³/mol)	log10 vapour pressure (mmHg)	log10 Koc (L/kg)	log10 Koa
O=Cc1cc(Cl)ccc1Cl	58 °C	232 °C	–	–	–	–	–
CCCCOC(=O)COc1ccc(Cl)cc1Cl	–	–	–	–	-4.21	–	–
CCCCCC(=O)OCCC	-68.7 °C	187 °C	–	–	–	–	–
CCN(CC)c1ccccc1	-38.8 °C	216 °C	not readily biodegradable	–	-0.866	2.08	–
O=C(C=Cc1ccccc1)OCc1ccccc1	39 °C	350 °C	–	–	-5	–	–
CCCCC(C(=O)OCC)C(=O)OCC	–	238 °C	–	–	–	–	–
Cc1c([N+](=O)[O-])cc2c(c1[N+](=O)[O-])C(C)(C)CC2(C)C	132 °C	–	–	–	–	–	–
Brc1ccc(Oc2ccccc2)c(Br)c1	–	–	–	–	–	–	8.37
CC=Cc1cccc(OC)c1O	81 °C	268 °C	–	–	–	–	–
Cc1ccc(-c2nc3ccc(C)cn3c2CC(=O)N(C)C)cc1	196 °C	–	–	–	–	–	–
CC(C)C1CCC(Cc2ccc(Cl)cc2)C1(O)Cn1cncn1 (stereo not given)	89 °C	–	–	–	-7.4	–	–
CCCN(CCC)c1ccccc1	–	242 °C	–	–	–	–	–
CC1CC(C)(C)CC1=O (stereo not given)	-25.6 °C	160 °C	–	–	–	–	–
CC(C)(C)c1ccc2c(c1)C(=O)c1ccccc1C2=O	99 °C	–	not readily biodegradable	–	–	–	–
C=Cc1ccc(C)cc1C	-64 °C	–	–	–	–	–	–
Brc1ccc(Br)s1	-6 °C	210 °C	–	–	–	–	–
C1CCc2nnnn2CC1	59.5 °C	–	–	–	–	–	–
Cl.Nc1ccc(N=Nc2ccccc2)c(N)c1	118 °C	–	–	–	–	–	–
Cc1cc(C)c(NC(=O)CN(CC(=O)O)CC(=O)O)c(C)c1Br	199 °C	–	–	–	–	–	–
NC[C@H](O)c1ccccc1	56.5 °C	–	–	–	–	–	–
COc1ccc(Br)cc1OC	–	254 °C	–	–	–	–	–
CCC(=O)O[C@H]1CC[C@H]2[C@@H]3CC[C@H]4CC(=O)[C@H](C)C[C@]4(C)[C@H]3CC[C@]12C	128 °C	–	–	–	–	–	–

Compound	melting point	boiling point	ready biodegradability	log10 Henry constant (atm·m³/mol)	log10 vapour pressure (mmHg)	log10 Koc (L/kg)	log10 Koa
C=CCC(CC=C)(C(=O)OCC)C(=O)OCC	–	244 °C	–	–	–	–	–
CCN(CC)C(=O)C(C)Oc1cccc2ccccc12 (stereo not given)	75 °C	–	–	–	-6.76	2.76	–
O=C(O)CC(=O)O	–	–	readily biodegradable	–	–	–	–
O=C(OC(=O)c1ccccc1)c1ccccc1	42.5 °C	360 °C	–	–	-3.93	–	–
COc1cc(S(C)=O)ccc1-c1nc2ncccc2[nH]1 (stereo not given)	204 °C	–	–	–	–	–	–
CC(C)=CC(=O)NS(=O)(=O)c1ccc(N)cc1	184 °C	–	–	–	–	–	–
COc1ccccc1C#N	24.5 °C	256 °C	–	–	–	–	–
CC[C@H](C)CBr	–	122 °C	–	–	–	–	–
C=CCOC(=O)C(=C)C	–	–	readily biodegradable	–	0.761	–	–
CC(C)(N=C(O)C(Br)C(C)(C)C)c1ccccc1 (stereo not given)	180 °C	–	–	–	–	–	–
C[C@@H]1CCC[C@H]1O	–	150 °C	–	–	–	–	–
CCCOC/C(=N\c1ccc(Cl)cc1C(F)(F)F)n1ccnc1	63.5 °C	–	–	–	-5.85	–	–
Cc1cc[nH]c1	-48.4 °C	143 °C	–	–	–	–	–
NC(=O)c1ccc(F)cc1	156 °C	–	–	–	–	–	–
CN(C)C(=O)Nc1cc(C(C)(C)C)on1	120 °C	–	readily biodegradable	–	-6.42	2.47	–
CCC(C)[N+](=O)[O-] (stereo not given)	–	140 °C	–	–	0.891	–	–
Cc1cccc(C)c2cc(C(C)C)cc1-2	32.3 °C	–	–	–	–	–	–
Nc1ccc(S(=O)(=O)NCc2ccccc2)cc1	171 °C	–	–	–	–	–	–
CC(C)[C@@H]1CC[C@@H](C)[C@H](O)C1	–	218 °C	–	–	–	–	–
O=C(O)CC(Br)C(=O)O (stereo not given)	161 °C	–	–	–	–	–	–
CN(N)c1ccccc1	–	228 °C	–	–	–	–	–

Source: the OPERA property sets (Mansouri et al. 2018)
